Article PMC7083851, “Extended pharmacodynamic responses observed upon PROTAC-mediated degradation of RIPK2” (Communications Biology, 2020)
Several values for one entry are separate records, joined by “and”; a condition that tells them apart may be missing. Identical values can stand only once.

Legend:
[1] = test system: spontaneous IL-1β, IL-6, and TNFα release; assay: Spontaneous cytokine release (IL-1β, IL-6, TNFα) from ulcerative colitis patient intestinal biopsies; type: cell-based, human; conditions: prednisolone 1uM; individual biopsies; fig 4f
Procedure: (§1) Colonic biopsies or tissues were obtained during endoscopy or via surgical resection from Crohn’s Disease (CD) or Ulcerative Colitis (UC) patients (St Bartholomew’s Hospital, London). All patients gave informed written consent. For surgical specimens, the mucosa was dissected away from the submucosa and cut into pieces of ~10–20 mg. […] The supernatants were collected for cytokine measurement as detailed in cytokines assay section while tissues were used to determine RIPK2 levels.
(§2) Cytokine measurement assay: Cytokine levels were measured in rat plasma or rat PBMCs cell culture supernatants using rat V-Plex TNFα, in human plasma or human PBMCs cell culture supernatants with either TNFα tissue culture or 7-plex kit. Rat serum and tissues samples from the in vivo L18-MDP acute inflammation model were analyzed using the rat TNFα, Il-6 and IL-8 U-Plex kits. All kits provided by Meso Scale Discovery (MSD). Levels of cytokines spontaneously released from human colon biopsies cell culture supernatants were measured using Human IL-1 beta/IL-1F2 DuoSet ELISA (Bio-techne), Human IL-6 ELISA (Immunotools) and Human TNF-alpha DuoSet ELISA (Bio-techne). All samples were processed accordingly to the manufacturer’s instructions. The MSD plates were analyzed using the MSD sector imager 6000 plate reader and cytokines concentration (pg/ml) was obtained by using the MSD DISCOVERY WORKBENCH software version 4.0.12.1

[2] = test system: spontaneous IL-1β, IL-6, and TNFα release; assay: Spontaneous cytokine release (IL-1β, IL-6, TNFα) from Crohn's disease patient intestinal biopsies; type: cell-based, human; conditions: prednisolone 1uM; individual biopsies; fig 4e
Procedure: as §1, §2

RIPK2 [3] = molecular target: T1, RIPK2 (Homo sapiens, UniProt O43353); assay: RIPK2 degradation in THP-1 cells, capillary-based immunoassay, 18 h; type: cell-based; parameters: endogenous in cells; host or cells: THP-1 (ATCC TIB-202); conditions: for RIPK2 level relative to DMSO control, mean / RIPK2 level relative to DMSO control, replicate: THP-1, 18 h; for pDC50 (log half-maximal degradation concentration) of RIPK2: THP-1 cells, 18 h, n = 3
Procedure: The compounds were incubated with THP-1 cells for 18 h after which RIPK2 levels were determined using a capillary-based immunoassay (n = 3). All three PROTACs potently degraded RIPK2 in a concentration dependent manner (Fig. 1). […]. This discrepancy between the in vitro RIPK2 degradation and binding potency provides possible evidence for a catalytic mechanism of action of this compound.
(§3) Before treatment with compound or vehicle, THP1 cells, human and rat PBMCs were counted using Vi-Cell cell counter (Invitrogen) and adjusted to a final cell density of […] using complete growth medium. Cells or whole blood were treated with vehicle (0.1% DMSO) or fixed concentrations of compound up to 1 μM in half log unit increments and incubated for the time period indicated in the figure.
(§4) Simple Western immunoassay: Cell lysates were mixed with 5× concentrated master mix (Protein Simple) and denatured at 95 °C on a heat block for 5 min together with the provided ladder (Protein Simple). Antibodies were diluted in the provided buffer as following: anti-RIPK2 (1:10 or 1:50), anti-cIAP1(1:10), anti-cIAP2 (1:10), anti-XIAP (1:10), mouse anti-β-actin (Abcam - 1:1000), rabbit anti-β-actin (Abcam - 1:50) and anti-vinculin (1:100). All reagents (blocking buffer, primary and secondary antibodies, streptavadin, luminol/peroxide, separation matrix, stacking matrix and water) were added to the Protein Simple plate containing the ladder and lysates and the plate was placed in a Protein Simple Western instrument and the Simple Western default size assay protocol was used. All samples were analyzed using the associated Compass software 3.1.7. The area under the peak values obtained for RIPK2, cIAP1, cIAP2 or XIAP were normalized relative to the control protein values.
(§5) In vitro experimental data were analyzed using a 4-parameter logistic equation in GraphPad Prism 5.0.4. to generate an estimate of the half-maximal concentration and maximal degradation, DC50 and Dmax value respectively, for concentration-degradation relationships. Cytokine levels were analyzed in a similar manner to yield IC50 and Imax values. […] Where analysis to a sigmoidal relationship was not possible, the data points are shown as mean ± s.e.m.

RIPK2 [4] = molecular target: T1, RIPK2; assay: RIPK2 fluorescence polarisation binding assay
[5] = test system: L18-MDP-induced TNFα release; assay: L18-MDP-induced cytokine release (TNFα, IL1β, IL-6, IL-8, IL-10) in human PBMCs; type: cell-based; conditions: human PBMCs
Procedure: (§6) PBMCs were isolated from leukodepletion filter from platelet aphaeresis supplied by National Health System Blood and Transplant—NHSBT Apheresed at NHBST.
as §3
(§7) Where the assessment of cytokines was performed, L18-MDP was added to the cell culture media (1 μg/ml) or to the rat blood samples (100 ng/ml) and samples were incubated for up to 4 h. […] Samples were them spun down at 1000 g and the cell culture supernatant, plasma or serum were collected for cytokines assessment, while cell pellets were used for RIPK2 and/or cIAP1, cIAP2, and XIAP levels analysis via immunoblotting.
as §2, §5

RIPK2 [6] = molecular target: T1, RIPK2; assay: RIPK2 degradation in human PBMCs (immunoassay); type: cell-based; parameters: endogenous in cells; host or cells: primary human PBMCs from leukodepletion filters (NHSBT)
Procedure: as §6, §3, §7
as §4, with “All samples were analyzed using the associated Compass software 3.1.7.” left out
as §5

T1 sequence (O43353 whole entry): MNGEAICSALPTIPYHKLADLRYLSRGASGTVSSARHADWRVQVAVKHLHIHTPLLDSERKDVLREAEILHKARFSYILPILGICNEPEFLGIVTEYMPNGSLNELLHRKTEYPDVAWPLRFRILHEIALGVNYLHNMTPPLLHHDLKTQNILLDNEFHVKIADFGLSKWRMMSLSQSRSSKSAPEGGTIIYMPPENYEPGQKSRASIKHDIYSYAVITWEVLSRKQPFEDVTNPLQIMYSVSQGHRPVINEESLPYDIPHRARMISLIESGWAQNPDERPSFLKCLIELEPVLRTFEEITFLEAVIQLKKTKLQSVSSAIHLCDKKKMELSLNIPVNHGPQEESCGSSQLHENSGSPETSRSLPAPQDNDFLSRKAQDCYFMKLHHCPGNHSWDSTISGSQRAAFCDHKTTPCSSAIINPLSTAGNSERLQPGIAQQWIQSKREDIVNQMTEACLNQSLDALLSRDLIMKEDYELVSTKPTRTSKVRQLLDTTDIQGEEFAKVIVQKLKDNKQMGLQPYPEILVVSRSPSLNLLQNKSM

## C[C@]12C=CC(=O)C=C1CC[C@@H]1[C@@H]2[C@@H](O)C[C@@]2(C)[C@H]1CC[C@]2(O)C(=O)CO [prednisolone, reference compound]
[1]
  IL-1b (Ctrl=DMSO = 100): 65 and 41 and 10 and 46 and 7 (2×) and 49 and 30 and 14 and 33 and 36 and 5 and 17 and 39 and 19 (2×) and 13 and 34 and 28
  IL-6 (Ctrl=DMSO = 100): 58 and 14 and 16 and 25 and 18 and 9 and 12 and 5 (2×) and 74 and 26 and 34 and 28 and 19 and 3 and 21 and 17 and 48 and 24
  TNFa (Ctrl=DMSO = 100): 36 and 19 and 40 and 48 and 18 (2×) and 56 and 8 and 33 and 55 and 69 and 27 and 38 (2×) and 20 and 25 and 35 and 14 and 39
[2]
  IL-1b (Ctrl=DMSO = 100): 18 and 20 and 82 and 15 and 48 and 13 and 5 (2×) and 35 and 37 and 12 and 6 and 49 and 17
  IL-6 (Ctrl=DMSO = 100): 26 (2×) and 27 and 10 and 1 and 8 and 46 and 63 and 31 and 7 and 42 and 40 and 90 and 50 and 9
  TNFa (Ctrl=DMSO = 100): 29 and 15 and 42 and 28 and 19 and 0 and 13 and 33 and 46 (2×) and 27 and 26 and 38 and 23 and 66

## Cc1ncsc1-c1ccc(CNC(=O)[C@@H]2C[C@@H](O)CN2C(=O)[C@@H](NC(=O)COCCOCCOCCOCCOc2cc3nccc(Nc4ccc5scnc5c4)c3cc2S(=O)(=O)C(C)(C)C)C(C)(C)C)cc1 [PROTAC 1]
RIPK2 [3]; concentration 5.64503e-11 (uM)
  RIPK2 level relative to DMSO control, mean: 137.19%
  RIPK2 level relative to DMSO control, replicate: 137.14% and 131.67% and 142.75%
RIPK2 [3]; concentration 1.69351e-10 (uM)
  RIPK2 level relative to DMSO control, mean: 152.51%
  RIPK2 level relative to DMSO control, replicate: 155.57% and 149.03% and 152.92%
RIPK2 [3]; concentration 5.08053e-10 (uM)
  RIPK2 level relative to DMSO control, mean: 122.01%
  RIPK2 level relative to DMSO control, replicate: 106.27% and 143.87% and 115.89%
RIPK2 [3]; concentration 1.52416e-9 (uM)
  RIPK2 level relative to DMSO control, mean: 89.18%
  RIPK2 level relative to DMSO control, replicate: 63.87% and 96.25% and 107.40%
RIPK2 [3]; concentration 4.57247e-9 (uM)
  RIPK2 level relative to DMSO control, mean: 27.32%
  RIPK2 level relative to DMSO control, replicate: 23.09% and 35.58% and 23.29%
RIPK2 [3]; concentration 1.37174e-8 (uM)
  RIPK2 level relative to DMSO control, mean: 9.76%
  RIPK2 level relative to DMSO control, replicate: 12.67% and 5.77% and 10.83%
RIPK2 [3]; concentration 4.11523e-8 (uM)
  RIPK2 level relative to DMSO control, mean: 6.61%
  RIPK2 level relative to DMSO control, replicate: 11.20% and 7.66% and 0.96%
RIPK2 [3]; concentration 1.23457e-7 (uM)
  RIPK2 level relative to DMSO control, mean: 5.05%
  RIPK2 level relative to DMSO control, replicate: 9.24% and 2.76% and 3.15%
RIPK2 [3]; concentration 3.7037e-7 (uM)
  RIPK2 level relative to DMSO control, mean: 6.31%
  RIPK2 level relative to DMSO control, replicate: 7.12% and 6.30% and 5.51%
RIPK2 [3]; concentration 1.11111e-6 (uM)
  RIPK2 level relative to DMSO control, mean: 33.78%
  RIPK2 level relative to DMSO control, replicate: 1.60% and 12.61% and 87.13%
RIPK2 [3]; concentration 3.33333e-6 (uM)
  RIPK2 level relative to DMSO control, mean: 14.14%
  RIPK2 level relative to DMSO control, replicate: 1.88% and 3.30% and 37.22%
RIPK2 [3]; concentration 1e-5 (uM)
  RIPK2 level relative to DMSO control, mean: 11.28%
  RIPK2 level relative to DMSO control, replicate: 13.04% and 4.22% and 16.59%
RIPK2 [3]
  pDC50 (log half-maximal degradation concentration) of RIPK2: 8.7 ± 0.1

## CN[C@H](C)C(=O)N[C@@H](C(=O)N1CCC[C@@H]1c1nc(C(=O)c2ccc(F)cc2)cs1)C1CCN(C(=O)c2cnc(N3CCN(CCOc4cc5ncnc(Nc6n[nH]c(C)c6C)c5cc4S(=O)(=O)C(C)(C)C)CC3)nc2)CC1 [PROTAC 5]
RIPK2 [4]
  RIPK2 FP pIC50 ± SEM (n): 6.7 ± 0.05 (12)
[5]; L18-MDP-induced TNFα release, 6 h
  hPBMC MDP pIC50 ± SEM, 6 h (n = 3): 6.5 ± 0.5
[5]; control PROTAC vs its enantiomer
  fold reduced potency in L18-MDP-induced TNFα release versus the active PROTAC: more than 10 fold
RIPK2 [6]
  RIPK2 degradation in human PBMCs, in words: does not degrade RIPK2
RIPK2 [6]; RIPK2 degradation, 24 h
  hPBMC pDC50 ± SEM, 24 h (n = 3): Non-degrader

## CC(C)(C)S(=O)(=O)c1cc2c(Nc3ccc4scnc4c3)ccnc2cc1OCCOCCOCCOCCOCC(=O)Nc1cccc2c1CN([C@H]1CCC(=O)NC1=O)C2=O [PROTAC 3]
RIPK2 [3]; concentration 5.64503e-11 (uM)
  RIPK2 level relative to DMSO control, mean: 146.59%
  RIPK2 level relative to DMSO control, replicate: 194.68% and 98.50%
RIPK2 [3]; concentration 1.69351e-10 (uM)
  RIPK2 level relative to DMSO control, mean: 122.55%
  RIPK2 level relative to DMSO control, replicate: 71.16% and 101.63% and 194.85%
RIPK2 [3]; concentration 5.08053e-10 (uM)
  RIPK2 level relative to DMSO control, mean: 97.79%
  RIPK2 level relative to DMSO control, replicate: 93.88% and 82.74% and 116.75%
RIPK2 [3]; concentration 1.52416e-9 (uM)
  RIPK2 level relative to DMSO control, mean: 112.46%
  RIPK2 level relative to DMSO control, replicate: 101.29% and 70.25% and 165.85%
RIPK2 [3]; concentration 4.57247e-9 (uM)
  RIPK2 level relative to DMSO control, mean: 60.56%
  RIPK2 level relative to DMSO control, replicate: 92.51% and 28.00% and 61.18%
RIPK2 [3]; concentration 1.37174e-8 (uM)
  RIPK2 level relative to DMSO control, mean: 42.80%
  RIPK2 level relative to DMSO control, replicate: 81.76% and 12.71% and 33.93%
RIPK2 [3]; concentration 4.11523e-8 (uM)
  RIPK2 level relative to DMSO control, mean: 29.73%
  RIPK2 level relative to DMSO control, replicate: 51.94% and 1.28% and 35.96%
RIPK2 [3]; concentration 1.23457e-7 (uM)
  RIPK2 level relative to DMSO control, mean: 21.93%
  RIPK2 level relative to DMSO control, replicate: 35.50% and 5.30% and 24.99%
RIPK2 [3]; concentration 3.7037e-7 (uM)
  RIPK2 level relative to DMSO control, mean: 20.89%
  RIPK2 level relative to DMSO control, replicate: 34.52% and 2.06% and 26.09%
RIPK2 [3]; concentration 1.11111e-6 (uM)
  RIPK2 level relative to DMSO control, mean: 14.85%
  RIPK2 level relative to DMSO control, replicate: 24.75% and 3.56% and 16.23%
RIPK2 [3]; concentration 3.33333e-6 (uM)
  RIPK2 level relative to DMSO control, mean: 15.39%
  RIPK2 level relative to DMSO control, replicate: 20.92% and 6.74% and 18.51%
RIPK2 [3]; concentration 1e-5 (uM)
  RIPK2 level relative to DMSO control, mean: 22.12%
  RIPK2 level relative to DMSO control, replicate: 28.44% and 5.50% and 32.40%
RIPK2 [3]
  pDC50 (log half-maximal degradation concentration) of RIPK2: 8.6 ± 0.4
